The values that follow come from paper PMC10178785 (ACS Chemical Biology, 2023).

One may read the IC50 as the concentration needed to halve the response being measured. By Kd is commonly meant the equilibrium constant for the complex coming apart.

Each structure is given as a SMILES string. Like-named read-outs stand apart in the source and are kept apart here.

The target in experiment [1] is T1, MacroD1 (Homo sapiens, UniProt Q9BQ69). Description: biochemical. Format: binding.
Experiment [2] deals with T1, MacroD1. Conditions: cited from earlier work.
Experiment [3] has as its target T2, VEEV Macro (Venezuelan equine encephalitis virus, UniProt P27282). Description: biochemical. Format: binding.
The target of experiment [4] is T3, SARS-CoV-2 Macro1 (Severe acute respiratory syndrome coronavirus 2, UniProt P0DTD1). Description: biochemical. Format: binding.
For experiment [5], the target named is T4, CHIKV Macro (Chikungunya virus, UniProt Q8JUX6). Description: biochemical. Format: binding.
T4 sequence (Q8JUX6 1334-1493 limits assumed): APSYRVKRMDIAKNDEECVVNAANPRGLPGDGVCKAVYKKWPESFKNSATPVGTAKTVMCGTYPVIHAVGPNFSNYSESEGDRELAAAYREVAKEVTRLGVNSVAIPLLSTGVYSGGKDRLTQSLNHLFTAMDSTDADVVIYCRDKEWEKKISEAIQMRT
In a further experiment the target is PARP9 Macro2 (Homo sapiens, UniProt Q8IXQ6). Description: biochemical. The format is binding.
Experiment [6] has as its target T5, human MacroD2 (Homo sapiens, UniProt A1Z1Q3). Description: biochemical. The format is binding.
In experiment [7] the target is T2, VEEV Macro. Format: binding.
The target of experiment [8] is T1, MacroD1. The format is binding.
Experiment [9] addresses T3, SARS-CoV-2 Macro1. The format is binding.
Experiment [10] has as its target T5, human MacroD2. The format is binding.
Experiment [11] concerns the target T4, CHIKV Macro. The format is binding.
For a further experiment, the target named is SARS Macro1 (Severe acute respiratory syndrome coronavirus 2, UniProt P0DTD1). The format is biochemical, SARS-CoV-2.
Experiment [12] has as its target T1, MacroD1. The format is biochemical.

T5 sequence (A1Z1Q3 59-240 limits assumed): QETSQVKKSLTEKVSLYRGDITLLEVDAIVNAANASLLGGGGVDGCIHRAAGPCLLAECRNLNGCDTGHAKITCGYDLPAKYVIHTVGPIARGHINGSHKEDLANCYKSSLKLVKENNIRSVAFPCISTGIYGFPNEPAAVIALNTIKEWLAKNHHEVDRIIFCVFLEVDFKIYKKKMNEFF
T2 sequence (P27282 1330-1489 limits assumed): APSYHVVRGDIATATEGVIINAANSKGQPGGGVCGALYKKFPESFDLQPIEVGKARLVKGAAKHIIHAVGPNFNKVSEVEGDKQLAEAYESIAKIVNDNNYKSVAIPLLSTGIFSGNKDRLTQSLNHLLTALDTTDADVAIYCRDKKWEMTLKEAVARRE
T1 sequence (Q9BQ69 141-322 limits assumed): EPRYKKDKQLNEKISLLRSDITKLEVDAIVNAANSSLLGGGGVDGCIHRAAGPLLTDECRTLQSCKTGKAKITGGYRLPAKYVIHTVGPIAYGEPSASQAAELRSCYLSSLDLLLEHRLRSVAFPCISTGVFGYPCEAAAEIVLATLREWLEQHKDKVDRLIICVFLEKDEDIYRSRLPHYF

As for `Nc1ncnc2c1ncn2[C@@H]1O[C@H](COP(=O)(O)OP(=O)(O)OC[C@H]2OC(O)[C@H](O)[C@@H]2O)[C@@H](O)[C@H]1O` (stereo partly drawn) [ADPr, adenine diphosphate ribose], the IC50 on MacroD1 [1] (read-out: IC50 MacroD1) is 1.42 ± 0.22 µM; on VEEV Macro [3] (read-out: IC50 VEEV Macro) it was 18.3 ± 2.8 µM. For the same compound, the Kd at MacroD1 [2] is 0.72 µM.

Consider `[N-]=[N+]=NC1OC(COP(=O)(O)OP(=O)(O)OCC2OC(n3cnc4c(N)ncnc43)C(O)C2O)C(O)C1O` (stereo not drawn) [ADPr-N3], for which, at SARS-CoV-2 Macro1 [4], 7.23 ± 0.94 µM corresponded to half-maximal inhibition (IC50) and the “IC50 Fold Decrease Relative to ADPr: SARS Macro1” value is given as approximately 2 fold.

`N#C[C@@]1(c2ccc3c(N)ncnn23)O[C@H](CO)[C@@H](O)[C@H]1O` [GS-441524]: the IC50 against MacroD1 [1], on CHIKV Macro [5], against VEEV Macro [3], against PARP9 Macro2 and at human MacroD2 [6] was more than 100 µM in each case.

Consider `CN(C)c1ccc2c(c1)Oc1cc(N(C)C)ccc1C21OC(=O)c2cc(C(=O)NCCCCCCNC(=O)CCc3cn([C@H]4O[C@H](COP(=O)(O)OP(=O)(O)OC[C@H]5O[C@@H](n6cnc7c(N)ncnc76)[C@H](O)[C@@H]5O)[C@@H](O)[C@H]4O)nn3)ccc21` [TAMRA-ADPr], for which the mP shift at VEEV Macro [7] is approximately 70 mP; on MacroD1 [8], “more than 100 mP”; on SARS-CoV-2 Macro1 [9], “over 110 mP”; at human MacroD2 [10], “more than 100 mP”; at CHIKV Macro [11], approximately 70 mP.

As for `Nc1ncnc2c1ncn2[C@@H]1O[C@H](COP(=O)(O)OP(=O)(O)OC[C@H]2O[C@H](Oc3ccc4c(C(F)(F)F)cc(=O)oc4c3)[C@H](O)[C@@H]2O)[C@@H](O)[C@H]1O` [TFMU-ADPr, ADP-ribosylated trifluoromethyl umbelliferone], on SARS Macro1, the “MAR hydrolysis activity of SARS Macro1 in the presence of inhibitor” value is “lowered MAR hydrolysis activity”. The 50% inhibitory concentration (IC50) against MacroD1 [1] was found to be 0.29 ± 0.02 µM; against SARS-CoV-2 Macro1 [4] it was 0.59 µM; against CHIKV Macro [5] it was 37.6 ± 12.3 µM; on VEEV Macro [3], 4.24 ± 0.36 µM; on PARP9 Macro2 it was 10.9 ± 1.1 µM; at human MacroD2 [6] it was 0.09 ± 0.02 µM. Also, the “MAR hydrolysis activity of MacroD1 in the presence of inhibitor” value on MacroD1 [12] was “lowered MAR hydrolysis activity”. Moreover, the “IC50 Fold Decrease Relative to ADPr: SARS Macro1” value against SARS-CoV-2 Macro1 [4] was 25 fold.

With `Nc1ncnc2c1ncn2[C@@H]1O[C@H](COP(=O)(O)O)[C@@H](O)[C@H]1O[C@@H]1O[C@H](COP(=O)(O)O)[C@@H](O)[C@H]1O` [iso-ADPr], the “Competition with the tracer in macrodomain binding” value on MacroD1 [1], at SARS-CoV-2 Macro1 [4], on CHIKV Macro [5], on VEEV Macro [3], at PARP9 Macro2 and at human MacroD2 [6] was “did not compete” in each case.

For `Nc1ncnc2c1ncn2[C@@H]1O[C@H](COP(=O)(O)OP(=O)(O)OC[C@H]2O[C@H](Oc3ccc([N+](=O)[O-])cc3)[C@H](O)[C@@H]2O)[C@@H](O)[C@H]1O` [pNP-ADPr, ADP-ribosylated p-nitrophenol], the “MAR hydrolysis activity of SARS Macro1 in the presence of inhibitor” value at SARS Macro1 is given as “lowered MAR hydrolysis activity”. Also, the IC50 on MacroD1 [1] amounted to 0.96 ± 0.07 µM; against SARS-CoV-2 Macro1 [4], 0.37 µM; against CHIKV Macro [5] it was 22.8 ± 5.7 µM; at VEEV Macro [3] it was 10.7 ± 0.9 µM; on PARP9 Macro2, 4.5 ± 0.4 µM; at human MacroD2 [6], 0.15 ± 0.01 µM. Further, at MacroD1 [12], the “MAR hydrolysis activity of MacroD1 in the presence of inhibitor” value is “lowered MAR hydrolysis activity”. The “IC50 Fold Decrease Relative to ADPr: SARS Macro1” value on SARS-CoV-2 Macro1 [4] turned out to be 40 fold.
